The values below come from PubChem BioAssay (NCI).

Structures are written as SMILES.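 Cultured in 96-well plates, cells were exposed to test compound for 48 hours across five concentrations. At the TGI there is no net growth.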

What all share (experiment): growth of human tumour cells (NCI), 48 h
Experiment [1] relates to HL-60(TB) leukemia.
Experiment [2] deals with NCI-H522 lung.
Experiment [3] has as its system DLD-1 colon.
Experiment [4] concerns KM20L2 colon.
In experiment [5] the test system is SW-620 colon.
Experiment [6] concerns SNB-78 CNS.
The subject of experiment [7] is DMS 273 small cell lung.
Experiment [8] relates to LXFL 529 NSCLC.
Experiment [9] has as its system M19-MEL melanoma.
In experiment [10] the test system is SK-MEL-5 melanoma.
The test system of experiment [11] is HOP-18 NSCLC.
Experiment [12] has as its system RXF-631 renal.
In experiment [13] the test system is DMS 114 small cell lung.
For experiment [14], the system named is MCF7 breast.
Experiment [15] has as its system XF 498 CNS.

`N#CC(NNC(=O)c1ccccc1O)c1ccccc1O` (stereo not drawn): the TGI in [1], in experiment [2], in experiment [3], in [4], in experiment [5] and in experiment [6] was over 100 µM throughout. Further, the TGI is over 100 µM in experiment [7]; over 100 µM in experiment [8]; 27.2 µM in experiment [9]; 42.3 µM in [10]; over 100 µM in [11].

`COC1=C(OC)C(=O)c2cc(C)c(=O)c(C)cc2C1=O`: the TGI in experiment [1] was 8.9 µM; in [12], over 100 µM; in experiment [2], 32.2 µM; in experiment [3], 41.4 µM; in experiment [13] it was 12.7 µM; in experiment [4], 40 µM. The TGI in experiment [5] is 20.7 µM; in experiment [6], 45.5 µM; in experiment [14], 36.4 µM; in experiment [7] it was 45.5 µM; in experiment [8] it was 13.9 µM; in [9], 11.5 µM. The TGI in experiment [10] was 29.3 µM; in [11], 29.9 µM.

Turning to `CSc1cnc2ccccc2c1Sc1cn(C)c2ccccc2c1=O`, the TGI in [1] is over 100 µM; in [12], 42.5 µM; in experiment [3], over 100 µM; in experiment [13], 67.7 µM; in experiment [4], over 100 µM; in experiment [5], over 100 µM. The TGI in experiment [7] was over 100 µM; in experiment [15], 70.8 µM; in experiment [9] it was over 100 µM; in experiment [10], over 100 µM; in experiment [11] it was over 100 µM.

For `Nc1cc2c(C3OC(CO)C(O)C3O)[nH]nc2c(=S)[nH]1` (stereo not drawn), the TGI in experiment [1], in experiment [12], in experiment [2], in experiment [3], in experiment [13] and in [4] was over 100 µM each time. In addition, the TGI in experiment [5], in [6], in experiment [7], in [8], in experiment [15] and in experiment [9] was over 100 µM in each case. The TGI in experiment [10] was over 100 µM.

Take `CS(=O)(=O)Sc1ccc(Cl)cc1`: the TGI in experiment [1] amounted to 17.5 µM; in experiment [12] it was 20 µM; in [2], 9.47 µM; in experiment [3], 27.2 µM; in experiment [4], 24.3 µM; in experiment [5] it was 25.3 µM. The TGI in experiment [6] is 15.6 µM; in [7], 17.4 µM; in [8], 23.3 µM; in experiment [15], 22.7 µM; in experiment [9] it was 21.2 µM; in experiment [10], 20.2 µM. Also, in experiment [11], the TGI came out at 55.4 µM.

Take `COC(=O)c1nc2n(n1)-c1ccccc1C(=O)N(Cc1ccccc1)C2`: the TGI in [1], in [2], in experiment [5], in experiment [14] and in experiment [10] was over 100 µM each time.

Consider `CSc1ccc(/C=C2\N=C(c3ccccc3)N(NC(=O)c3c(Cl)c(Cl)c(Cl)c(Cl)c3-c3nc4ccccc4[nH]3)C2=O)cc1`, for which the TGI in experiment [1] was 61 µM; in experiment [2], over 100 µM; in [5], over 100 µM; in experiment [14], over 100 µM; in experiment [10], over 100 µM.

`Nc1nc(NCc2ccccc2)cc(NCc2ccccc2)n1`: the TGI in [1] was over 100 µM; in experiment [2], 19.2 µM; in experiment [5], over 100 µM; in experiment [14], 6.36 µM; in experiment [10] it was 19.7 µM.

As for `C[N+](C)(C)CC(=O)N/N=C\c1c(O)ccc2ccccc12`, the TGI is 43.3 µM in experiment [1]; 53.6 µM in experiment [2]; over 100 µM in experiment [5]; over 100 µM in [14]; 39.3 µM in experiment [10].

Consider `NS(=O)(=O)c1ccc(NNc2c3ccccc3nc3c(C(=O)Nc4ccc(S(N)(=O)=O)cc4)cccc23)cc1`, for which the TGI was 68.9 µM in experiment [1]; 50.8 µM in experiment [2]; over 100 µM in experiment [5]; over 100 µM in experiment [14]; over 100 µM in [10].

As to `COc1ccc(N(c2ccc(C#N)cc2)c2ccc(C#N)cc2)cc1`, the TGI in experiment [1] was over 100 µM; in experiment [2], 82.9 µM; in experiment [5], over 100 µM; in experiment [14], over 100 µM; in experiment [10], over 100 µM.

In the case of `COc1cc(Nc2nc(NS(=O)(=O)c3cc(C)c(Cl)cc3S)n[nH]2)cc(OC)c1OC`, the TGI in experiment [1], in experiment [2], in [5], in experiment [14] and in experiment [10] was over 100 µM each time.

For `COC(=O)C(Cc1ccc2c(c1)OCO2)(NC(=O)c1ccccc1)P(=O)(OC)OC` (stereo not drawn), the TGI in experiment [1], in experiment [12], in experiment [2], in [3], in [13] and in [4] was over 100 µM each time. The TGI in experiment [5], in [6], in experiment [7], in experiment [8], in experiment [15] and in [9] was over 100 µM in each case. Besides, in experiment [10], the TGI was over 100 µM.

Turning to `c1ccc2sc(C3(N4CCCCCC4)CCCCC3)cc2c1`, the TGI stood at 40.9 µM in experiment [1]; 36.4 µM in [2]; 36.6 µM in experiment [5]; 32.9 µM in experiment [14]; 33.3 µM in [10].

In the case of `Cn1c2ccccc2n2c3ccccc3c3nnc(N)c-3c12`, the TGI in [1] was over 100 µM; in experiment [2], 26.2 µM; in experiment [5], over 100 µM; in [14], over 74.7 µM; in [10], over 100 µM.

As to `CC(=O)Nc1ccc2c3c(cc(O)c2c1)N(C(=O)CCCCCCC(=O)Nc1ccc2c4c(cc(O)c2c1)N(C(=O)OC(C)(C)C)CC4CCl)CC3CCl` (stereo not drawn), the TGI in experiment [1] was 0.241 µM; in [2], 0.405 µM; in experiment [5] it was over 36.3 µM; in [14], 0.739 µM; in experiment [10] it was 0.0783 µM.

Regarding `C/C(=C\COP(=O)(O)CP(=O)(O)O)CC/C=C(\C)CNc1ccccc1`, the TGI in [1], in experiment [2], in experiment [5], in experiment [14] and in [10] was over 100 µM in each case.

Regarding `O=c1oc2cc(O)ccc2c(O)c1C(c1ccc(/C=C/c2ccccc2)cc1)c1c(O)c2ccc(O)cc2oc1=O`, the TGI in experiment [1] is 69.6 µM; in experiment [2] it was over 100 µM; in experiment [5], over 100 µM; in [14], over 100 µM; in experiment [10], 95 µM.

Take `COc1ccc(C2OC2C(=O)C23CC4CC(CC(C4)C2)C3)cc1` (stereo not drawn): the TGI in experiment [1] is 97.2 µM; in experiment [2] it was over 100 µM; in experiment [5], over 100 µM; in experiment [14], over 100 µM; in experiment [10] it was over 100 µM.

`CC(C(=O)NCNC(=O)c1ccccc1)C(=O)NCc1ccccc1` (stereo not drawn): the TGI in experiment [1], in experiment [2], in [5], in experiment [14] and in [10] was over 100 µM in each case.

Turning to `COc1ccccc1Nc1nc(N)nc(N)c1N`, the TGI in [1] was 85 µM; in experiment [2], 67 µM; in [5], 72 µM; in experiment [14], over 100 µM; in [10], over 100 µM.

Turning to `C(#C[C@@]12CCC[C@@H]1NCO2)c1ccc2c(c1)OCO2`, the TGI in experiment [1] was 68.2 µM; in experiment [2], over 100 µM; in [5], over 100 µM; in experiment [14], over 100 µM; in [10], over 100 µM.

In the case of `NS(=O)(=O)c1ccc(NCc2cccc3c(=O)c4ccc(Cl)cc4oc23)cc1`, the TGI in experiment [1] is 9.47 µM; in [2] it was 99.7 µM; in experiment [5], over 100 µM; in [14], over 67 µM; in [10], over 100 µM.

On to `CC(C)=CCN1c2ccccc2[C@@]2(CC=C(C)C)CCN(C)[C@@H]12`, for which the TGI in [1] is 38.1 µM; in experiment [2], 39.9 µM; in experiment [5] it was over 100 µM; in experiment [14], 34.4 µM; in experiment [10] it was 33.2 µM.

Take `CC(=O)OCCn1c(Cc2ccc(Cl)cc2)nn(C(C)=O)c1=O`: the TGI in experiment [1], in [2], in experiment [5], in experiment [14] and in experiment [10] was over 100 µM throughout.

`CCCCc1c2c([n+]([O-])c3c1CCCC3)CCCC2`: the TGI was over 100 µM in experiment [1]; 5.33 µM in experiment [2]; over 100 µM in experiment [13]; over 100 µM in [4]; over 100 µM in experiment [5]; over 100 µM in experiment [7]. For the same compound, the TGI in [8], in experiment [15], in experiment [9] and in experiment [10] was over 100 µM in each case.

Take `CCOP(=O)(OCC)/C(F)=C/c1ccc(F)cc1`: the TGI in experiment [1], in experiment [2], in experiment [5], in experiment [14] and in experiment [10] was over 100 µM in each case.

For `Cc1cccc2c(=O)c3cccc(CC(=O)O)c3oc12`, the TGI in [1], in experiment [2], in experiment [5], in experiment [14] and in experiment [10] was over 100 µM throughout.

In the case of `CCOC(=O)/C(C#N)=c1/s/c(=C(\O)N/N=C/c2ccc(OC)cc2)c(=N)n1-c1ccccc1`, the TGI in experiment [1], in experiment [2], in experiment [3], in [5], in experiment [8] and in experiment [9] was over 100 µM throughout. The TGI in experiment [10] and in experiment [11] was over 100 µM in each case.

Regarding `COc1ccc(Cc2nc3cc(C(F)(F)F)ccc3n2C[C@@H]2CCCN3CCCCC23)cc1` (stereo partly drawn), the TGI in experiment [1] was 19.5 µM; in experiment [2], 21.8 µM; in experiment [5], over 62.1 µM; in experiment [14], 26.2 µM; in [10], 20.3 µM.

Regarding `CCO/C=N\C1=C(C#N)SC2=N/C(=C\c3ccco3)C(=O)N21`, the TGI in experiment [1], in experiment [2], in [5], in experiment [14] and in [10] was over 100 µM in each case.
